In PubChem BioAssay AID179 (DTP/NCI, 2004):
“And” between values parts separate entries of the source, which are not always exact repeats. Equal values may be shown once. The source made the active and inactive calls.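 How the source made its calls: active means compounds giving half or more protection of infected cells from virus-caused growth loss, again on retest; inactive means the rest.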

System: CEM cells HIV-1 protection, formazan growth assay
Assay: NCI AIDS Antiviral Assay
Details: for IC50: measured here: growth of uninfected CEM cells
Procedure, shortened: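 Protection of CEM cells against HIV-1 was scored from cell growth (soluble formazan) across five concentrations, with parallel uninfected cells. Lack of protection may reflect toxicity.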

| Compound | EC50 | IC50 | outcome |
| --- | --- | --- | --- |
| O=S1(=O)OCCOS(=O)(=O)C1(I)I | > 550 µM | 123 µM |  |
| CCC1=C(C(C)=O)[C@@H]2CCCCC[C@@H](C(=O)OC)C2C1=O (stereo partly drawn) | 191 µM | > 200 µM |  |
| O=C1NC(=O)[C@@]2(CCOc3ccc(F)cc32)N1 | > 741 µM | 661 µM |  |
| NC(=O)N/N=C(\Cc1cc(=O)oc2cc(O)ccc12)C(=O)Nc1ccccc1C(N)=O | > 32.4 µM | > 32.4 µM |  |
| CC1CCCC(C)C(Sc2ccccc2)=C1Sc1ccccc1 (stereo not drawn) |  |  | inactive |
| O=c1c2ccccc2n2nnc3cccc1c32 | > 23.4 µM | > 23.4 µM |  |
| Cc1cn(C2O[C@@H]3CN(O)[C@H](C)[C@]3(O)C2O)c(=O)[nH]c1=O (stereo partly drawn) | > 200 µM | > 200 µM |  |
| COc1oc(C(=O)NC2CCCCC2)c(-c2ccc(Cl)cc2)c1S(=O)(=O)c1ccccc1 | > 200 µM | 9.77 µM |  |
| Cc1cn(CC2=NCCN2)c(=O)[nH]c1=O | > 200 µM | > 200 µM |  |
| CCOC(=O)C(=O)Nc1c(N(CC)CC)n2ccccc2nc1=O | > 676 µM | > 676 µM |  |
| CC1(C)CC(=O)C(C=NC(=O)c2ccncc2)=C(O)C1 | 100 µM | > 200 µM |  |
| CC(=O)C(N=Nc1ccc(S(=O)(=O)Nc2onc(C)c2C)cc1)C(=O)Nc1cc(C)cc(C)c1 (stereo not drawn) | > 200 µM | 30.2 µM |  |
| O=C1c2ccccc2-c2cccc3cccc1c23 | > 16.2 µM | > 16.2 µM |  |
| CCOC(=O)/C(F)=C/c1ccc([N+](=O)[O-])cc1 | > 41.7 µM | > 41.7 µM |  |
| CC(C)NC(=O)NCCc1c[nH]c2ccccc12 | > 200 µM | > 200 µM |  |
| CCO/N=C(/N)c1ncn(Cc2ccccc2)c1NCC(OCC)OCC | > 661 µM | 339 µM |  |
| OCC(O)C1OC(c2ccco2)OC(CO)C1O (stereo not drawn) | > 200 µM | > 200 µM |  |
| C=C1[C@@H]2CCC(C)(C)[C@H]1CCC(=O)[C@@H]2C(=O)OC | > 269 µM | 251 µM |  |
| CN(C)CC[PH+](c1ccccc1)c1ccccc1.CN(C)CC[PH+](c1ccccc1)c1ccccc1.[Cl-].[Pd+2] | > 200 µM | > 200 µM |  |
| Cc1ccc(/C=C2\CN(C)CC3C(c4ccc(C)cc4)=C(C#N)C(=O)NC23)cc1 (stereo not drawn) | > 200 µM | > 200 µM |  |
| COc1ccc2nc3cc(Cl)ccc3c(NCCCN(Cc3cc(OC)c(OC)c(OC)c3)Cc3cc(OC)c(OC)c(OC)c3)c2c1 |  |  | inactive |
| FC(F)(F)c1ccc2c3c(c4c(c2n1)OCN(Cc1ccc(Cl)cc1Cl)C4)CN(Cc1ccc(Cl)cc1Cl)CO3 | 0.282 µM | 4.37 µM |  |
| CC(O)(P(=O)(O)O)P(=O)(O)OCC(O)CN1CCOCC1 (stereo not drawn) | > 100 µM | > 100 µM |  |

| Compound | EC50 | IC50 | outcome |
| --- | --- | --- | --- |
| N#CCCN(CCN(CCC#N)C(=O)Nc1ccccc1)C(=O)Nc1ccccc1 | > 200 µM | > 200 µM |  |
| CCN(CC)C(=S)SCn1ncc2ccc([N+](=O)[O-])cc21 | > 107 µM | 10 µM |  |
| CN1C(=O)/C(=N\n2c(-c3ccccc3)nc3ccccc3c2=O)c2cc(Br)ccc21 | > 200 µM | > 200 µM |  |
| O=C1CC(CC(O)C(O)CO)CC(=O)N1 (stereo not drawn) | > 200 µM | > 200 µM |  |
| Nc1nnc[se]1 | > 200 µM | 3.63 µM |  |
| O=c1oc2ccccc2c(O)c1/C=N\c1nc(-c2ccc(O)c(O)c2)cs1 | > 200 µM | 3.24 µM |  |
| CC1=CC2c3c(O)cc(-c4cc5ccc(O)cc5o4)cc3OC3(c4ccc(O)cc4O)Oc4cc(O)ccc4[C@H](C1)C23 (stereo partly drawn) | > 22.9 µM | 2.04 µM |  |
| C[C@@H]1CC(=O)C2CCCC1C2=O (stereo partly drawn) |  |  | inactive |
| COc1ccc(C2OCC3OC(n4cc(C)c(=O)[nH]c4=O)C[C@H]3N2OC(C)=O)cc1 (stereo partly drawn) |  |  | inactive |
| COc1ccc(/C=C/C(=O)C(C)(C)C)cc1OC | > 200 µM | 39.8 µM |  |
| CC(=O)N1C(Nc2ccccc2)CCN1c1ccccc1 (stereo not drawn) | > 200 µM | 11.2 µM |  |
| CN(C)c1nc(N(C)C)n2c(-c3ccccc3[N+](=O)[O-])nnc2n1 | > 60.3 µM | 41.7 µM |  |
| O=C(CS(=O)(=O)c1ccccc1)c1ccccc1 | > 347 µM | 251 µM |  |
| COC(=O)[C@@H]1CN(C(C)=O)C(=O)N1C(=O)OCc1ccccc1 | > 200 µM | > 200 µM |  |
| CC1=NN2C(c3ccc(C)cc3)=CSC2=NC(C)(C)C1 | > 174 µM | 141 µM |  |
| O=C(CSc1nc(-c2ccccc2)c(-c2ccccc2)[nH]1)NNC(=S)Nc1ccccc1 | > 56.2 µM | 29.5 µM |  |
| O=C1C(CN2CCOCC2)CCCC1CN1CCOCC1 (stereo not drawn) | > 4270 µM | 1.35 µM | inactive |
| CCOP1(OCC)(SSC)OC(=O)C(C)S1 (stereo not drawn) | > 813 µM | 617 µM |  |
| CCOC(=O)c1ccc(CS(=O)(=O)c2ccccc2C(=O)OCC)cc1 | > 95.5 µM | > 95.5 µM |  |
| COC(=O)c1ccc(/C=C/S(=O)(=O)c2ccccc2)cc1 | > 4.79 µM | > 4.79 µM |  |
| Cc1nc(=O)n2c(c1C(=O)Nc1ccc(Cl)cc1)NCC2 |  |  | inactive |
| CCOC(=O)C(NCc1ccccc1)(NC(=O)c1ccccc1)C(F)(F)F (stereo not drawn) |  |  | inactive |
| Cc1cc(C)nc(NS(=O)(=O)c2ccc(NC(=O)c3ccc(Cl)c4c(Nc5ccc(S(=O)(=O)N=C(N)N)cc5)c5ccccc5nc34)cc2)n1 | > 35.5 µM | 30.9 µM |  |

| Compound | EC50 | IC50 | outcome |
| --- | --- | --- | --- |
| CC(C)=CCc1[nH]c2ccccc2c1C1=C(O)C(=O)C(c2c(CC=C(C)C)[nH]c3ccccc23)=C(O)C1=O | > 200 µM | 1.74 µM |  |
| COC(=O)N1N=C(c2ccccc2)C1c1ccccc1 (stereo not drawn) | > 200 µM | 38 µM |  |
| CCOC(=O)c1cnc2oc(-c3ccc(OC)cc3)nn2c1=O |  |  | inactive |
| NC(CCSSCCC(N)P(=O)(O)O)P(=O)(O)O (stereo not drawn) | > 200 µM | > 200 µM |  |
| Cc1ccccc1C1SCc2nc3ccccc3n21 (stereo not drawn) |  |  | inactive |
| COc1ccc(-c2nc(-c3cnccn3)n(Cc3ccccc3)n2)cc1 | 83.2 µM | > 200 µM |  |
| COC(=O)c1sc(=NC(=S)N2CCCCC2)sc1C(=O)OC |  |  | inactive |
| CC(=O)OC1N(C(C)=O)C(SC23CC4CC(CC(C4)C2)C3)C(C)=CC1(C)OC(C)=O (stereo not drawn) | > 200 µM | 126 µM |  |
| Cn1ccnc1CCc1ccc(F)cc1F | > 200 µM | > 200 µM |  |
| C[C@]12CCC(=O)C=C1CC[C@H]1[C@@H]3CC[C@@]4(OCC4=O)[C@@]3(C)C[C@H](O)[C@@]12F | > 123 µM | > 123 µM |  |
| CC1=C(C(=O)NCc2ccccc2)C(c2ccc(Cl)c(Cl)c2)C(C(=O)NCc2ccccc2)=C(C)N1 |  |  | inactive |
| Cc1nc(C2CCC3C4CCC5=CC(=O)CCC5(C)C4CCC23C)co1 (stereo not drawn) |  |  | inactive |
| COc1cc2cnc3c4ccccc4ccc3c2cc1OC | > 64.6 µM | > 64.6 µM |  |
| CCN(CC)CCCN1CCc2c([nH]c3ccccc23)C1c1cccnc1 (stereo not drawn) | > 186 µM | > 186 µM |  |
| CCC(=O)C1(c2cccc(OC)c2)CCN(C)CC1 | > 832 µM | 457 µM |  |
| CCOC(=O)C1C(=O)CC(O)(c2ccccc2)C(C(=O)OCC)C1c1ccc(N(C)C)cc1 (stereo not drawn) | > 200 µM | 4.07 µM |  |
| O=C1NC(=O)C(C(=O)Nc2ccc(Cl)cc2)c2ccccc21 (stereo not drawn) | > 200 µM | 129 µM |  |
| Cn1c2ccccc2c2nnc(-n3nc(-c4ccc(Br)cc4)cc3N)nc21 | > 200 µM | > 200 µM |  |
| CC(=O)c1c(-c2cccc3ccccc23)c(C#N)c(=S)n(C2OC(CO)C(O)C(O)C2O)c1-c1ccccc1 (stereo not drawn) | > 200 µM | 24 µM and > 200 µM |  |
| COC(=O)[C@](NC(=O)OCc1ccccc1)([C@@H](C)S(=O)c1ccc(C)cc1)C(F)(F)F (stereo partly drawn) | > 200 µM | 29.5 µM |  |
| C/C(=C\C=C\C(C)C)C1CCC(C)(NC=O)CC1 (stereo not drawn) |  |  | inactive |
| CN(C)C(=S)/N=c1\ss/c(=N/C(=S)N(C)C)n1-c1ccc([N+](=O)[O-])cc1 | > 200 µM | 151 µM |  |
| O=C1Cc2c([nH]c3ccccc23)-c2ccccc2N1 | > 105 µM | 69.2 µM |  |

| Compound | EC50 | IC50 | outcome |
| --- | --- | --- | --- |
| COC(=O)c1c(C(=O)OC)c2c(-c3ccccc3)cc3cccc1n32 | > 8.13 µM | > 8.13 µM |  |
| C/C=C1\CC(C(=O)OCC)CCCCCCC1=O (stereo not drawn) | > 200 µM | 17.4 µM |  |
| CSc1nc2[nH]c(=O)c(C)nc2c(=O)[nH]1 | > 23.4 µM | > 23.4 µM |  |
| CCCCCCCCCCCC1=C(O)C(=O)C(CC2=C(O)C(=O)C(CCCCCCCCCCC)=C(O)C2=O)=C(O)C1=O | > 20 µM | > 20 µM |  |
| N#C/C(=C/n1c(=S)[nH]c2ccc([N+](=O)[O-])cc21)c1ccc([N+](=O)[O-])cc1 | > 200 µM | 117 µM |  |
| CC(C)(Cc1ccccc1)N1C(=O)N1C(C)(C)Cc1ccccc1 | > 200 µM | 28.8 µM |  |
| O=C(CC1C=CCS1(=O)=O)NCc1ccccc1 (stereo not drawn) | > 97.7 µM | > 97.7 µM |  |
| O=C1[C@@H]2C3c4ccccc4C([C@@H]2C(=O)N1c1ccccc1)S3(=O)=O |  |  | inactive |
| C=CCNC(=O)N1CC(C)C(=O)Nc2ccccc21 (stereo not drawn) | > 200 µM | > 200 µM |  |
| Cc1ccc(C)n1CCN1CCNCC1 | > 200 µM | 162 µM |  |
| O=C1NC(N2CCCCC2)=N/C1=C\c1ccc(Cl)cc1 | > 200 µM | 97.7 µM |  |
| O=C1CCC[C@]2(CCCC(=O)N2)C1 |  |  | inactive |
| CCCCCCCCCCCCCCCCCC(=O)OCC(CO)OC(=O)CCCCCCCCCCCCCCCCC (stereo not drawn) |  |  | inactive |
| CN(C)CC1CCC/C1=N/OC(=O)c1ccccc1 (stereo not drawn) |  |  | inactive |
| COc1ccc(/C=C2\CCCC(C(NO)c3ccc(OC)cc3)C2=NO)cc1 (stereo not drawn) | > 19.1 µM | > 19.1 µM |  |
| CC(=O)NNC=N/C(C#N)=C(\N)C#N | > 200 µM | > 200 µM |  |
| COC1=CC2=CCC3C(CC[C@@]4(C)C3CC[C@@H]4C(C)=O)[C@@]2(C)CC1 (stereo partly drawn) | > 200 µM | 74.1 µM |  |
| COC(=O)C1=C(C(=O)OC)C23C=CC=CC24C(C(=O)OC)=C(C(=O)OC)C4C1C3 (stereo not drawn) | > 447 µM | 155 µM |  |
| CCC1(CC)C(=O)[N-]C(=O)[N-]C1=O.[Au+].[Au+].c1ccc([PH+](c2ccccc2)c2ccccc2)cc1.c1ccc([PH+](c2ccccc2)c2ccccc2)cc1 | > 6.61 µM | > 6.61 µM |  |
| CSc1nc(Br)nc2ncn(C3CC(Oc4ccc(C)cc4)C(COc4ccc(C)cc4)O3)c12 (stereo not drawn) | > 200 µM | 44.7 µM |  |
